Patent publication US5298414A (priority 1989, dated 1994)
Entries after “also recorded” stand apart in the source; their conditions may differ. Like-named read-outs stand apart in the source and are kept apart here.

What was measured:
[1] = biological target: T1, morphine dehydrogenase (MDH) (Pseudomonas putida, UniProt Q02198); assay: Cofactor requirement of MDH; format: biochemical, Pseudomonas putida MlO
[2] = biological target: T1, morphine dehydrogenase (MDH); assay: Substrate specificity of morphine dehydrogenase (Example 4); format: biochemical, Pseudomonas putida MlO; conditions: 0.35 μg purified enzyme, pH 9.5
[3] = biological target: T1, morphine dehydrogenase (MDH); assay: biochemical; format: biochemical, Pseudomonas putida MlO; conditions: for (b) Relative activity: 16 h at 4° C. then 10 min at 30° C., no addition gives 16
[4] = biological target: T1, morphine dehydrogenase (MDH); assay: Non-oxidation of steroids by morphine dehydrogenase (Example 2 standard assay); format: biochemical, Pseudomonas putida MlO; conditions: morphine replaced by the steroid in the standard assay
[5] = tested on: acetylmorphine carboxylesterase (AMCE); assay: Substrate specificity of the AMCE (HPLC); format: biochemical, Rhodococcus Hl; conditions: substrate 1.0 mM, purified AMCE 5 U, potassium phosphate buffer pH 7.5, 30° C.
[6] = biological target: T1, morphine dehydrogenase (MDH); format: biochemical, Pseudomonas putida MlO
[7] = tested on: washed cells of P. putida MlO; format: cell-based, Pseudomonas putida MlO
[8] = 10 min, read-out: (a) Relative activity
[9] = 16 h, read-out: (b) Relative activity

T1 sequence (Q02198 whole entry): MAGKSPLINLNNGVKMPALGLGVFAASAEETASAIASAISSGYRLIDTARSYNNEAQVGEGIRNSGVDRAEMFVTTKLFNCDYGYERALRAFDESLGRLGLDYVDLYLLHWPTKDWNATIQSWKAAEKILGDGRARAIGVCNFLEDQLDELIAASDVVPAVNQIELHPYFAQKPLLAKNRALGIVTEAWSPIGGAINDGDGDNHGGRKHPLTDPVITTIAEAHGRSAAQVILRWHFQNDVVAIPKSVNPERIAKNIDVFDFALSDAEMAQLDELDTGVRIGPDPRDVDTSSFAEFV

## 3-acetylpyridine ADP
[1]
  operability as cofactor for MDH: operable

## O=C(O)C(O)c1ccccc1 (racemic) [D,L-mandelic acid]
[2]; final concentration 10 Mm
  activity relative to 3 mM morphine: zero

## O[C@H](CS)[C@H](O)CS (racemic) [Dithiothreitol]
[3]; [8]
  activity at 1000 µM: 97%
[3]; [9]
  activity at 1000 µM: 64%

## C[C@]12CC[C@@H](O)C[C@@H]1CC[C@@H]1[C@@H]2CC[C@]2(C)C(=O)CC[C@@H]12 (stereo in doubt) [androsterone]
[2]; final concentration 10 Mm
  activity relative to 3 mM morphine: zero
[4]
  steroid dehydrogenase activity of MDH: No steroid dehydrogenase activity was detected

## c1cnc2c(c1)ccc1cccnc12 [1,10-Phenanthroline]
[3]; [8]
  activity at 50 µM: 76%
  activity at 500 µM: 61%
[3]; [9]
  activity at 500 µM: 14%

## c1ccc(-c2ccccn2)nc1 [2,2'-Dipyridyl]
[3]; [8]
  activity at 50 µM: 75%
  activity at 500 µM: 67%
[3]; [9]
  activity at 500 µM: 9%

## CC(=O)Oc1ccc2c3c1O[C@H]1[C@@H](O)C=C[C@H]4[C@@H](C2)N(C)CC[C@@]341 [3-acetylmorphine]
[5]
  time taken to reduce the substrate concentration by 20%: 2 min

## CC(=O)O[C@H]1C=C[C@H]2[C@H]3Cc4ccc(O)c5c4[C@@]2(CCN3C)[C@H]1O5 [6-acetylmorphine]
[2]; alkaloid substrates 3 mM
  activity relative to 3 mM morphine: zero
[6]; pH 10
  ability to serve as MDH substrate: completely inactive; also recorded: no activity
[5]
  time taken to reduce the substrate concentration by 20%: 240 min

## Oc1cccc2cccnc12 [8-Hydroxyquinoline]
[3]; purified mdh, 10 min, 50 µM
  (a) Relative activity: 100%

## O=S(=O)([O-])[O-].[Cu+2] [CuSO4]
[3]; reagent 0.1 mM, 10 min at room temperature, 100% = 67 U/mg
  (a) Relative activity: 34%
[3]; reagent 0.1 mM
  (b) Relative activity: 5%

## O=C(O)CN(CCN(CC(=O)O)CC(=O)O)CC(=O)O [EDTA]
[3]; [8]
  activity at 500 µM: 104%
[3]; [9]
  activity at 500 µM: 18%

## O=C(O)CI [Iodoacetate]
[3]; [8]
  activity at 100 µM: 61%
  activity at 1000 µM: 58%
  activity at 10000 µM: 54%
[3]; [9]
  activity at 10000 µM: 30%

## OCCS [Mercaptoethanol]
[3]; [8]
  activity at 1000 µM: 100%
[3]; [9]
  activity at 1000 µM: 73%

## CCN1C(=O)C=CC1=O [N-Ethylmaleimide]
[3]; [8]
  activity at 50 µM: 100%
  activity at 1000 µM: 58%
[3]; [9]
  activity at 1000 µM: 23%

## NC(=O)c1ccc[n+]([C@@H]2O[C@H](COP(=O)([O-])OP(=O)(O)OC[C@H]3O[C@@H](n4cnc5c(N)ncnc54)[C@H](OP(=O)(O)O)[C@@H]3O)[C@@H](O)[C@H]2O)c1 [NADP^+, nicotinamide adenine dinucleotide phosphate]
[1]
  operability as cofactor for MDH: absolute requirement

## NC(=O)c1ccc[n+]([C@@H]2O[C@H](COP(=O)([O-])OP(=O)(O)OC[C@H]3O[C@@H](n4cnc5c(N)ncnc54)[C@H](O)[C@@H]3O)[C@@H](O)[C@H]2O)c1 [NAD^+]
[1]
  operability as cofactor for MDH: shown not to be a substrate; also recorded: have not been found to be operable

## OCc1ccccc1 [benzyl alcohol]
[2]; alcohol substrates 50 mM
  activity relative to 3 mM morphine: zero

## CCC(C)O (stereo not drawn) [butan-2-ol]
[2]; alcohol substrates 50 mM
  activity relative to 3 mM morphine: zero

## COc1ccc2c3c1O[C@H]1[C@@H](O)C=C[C@H]4[C@@H](C2)N(C)CC[C@@]341 [codeine]
[2]; alkaloid substrates 3 mM
  activity relative to 3 mM morphine: 120%
[6]; pH 10
  activity relative to morphine: 1.7 times that of morphine
[7]
  metabolism by washed cells grown on heroin: readily metabolised

## COc1ccc2c3c1O[C@H]1C(=O)C=C[C@H]4[C@@H](C2)N(C)CC[C@]314 [codeinone]
[6]
  reverse direction reaction with NADPH: catalysed the oxidation of NADPH
[6]; pH 10
  ability to serve as MDH substrate: completely inactive

## OC1CCCCC1 [cyclohexanol]
[2]; alcohol substrates 50 mM
  activity relative to 3 mM morphine: zero

## COc1ccc2c3c1O[C@H]1[C@@H](O)CC[C@H]4[C@@H](C2)N(C)CC[C@@]341 [dihydrocodeine]
[2]; alkaloid substrates 3 mM
  activity relative to 3 mM morphine: 7.1%
[6]; pH 10
  ability to serve as MDH substrate: completely inactive; also recorded: did not show any activity

## CCO [ethanol]
[2]; alcohol substrates 50 mM
  activity relative to 3 mM morphine: zero
[6]
  ability to serve as MDH substrate: negative result
[6]; pH 10
  ability to serve as MDH substrate: completely inactive; also recorded: does not oxidise

## CCOc1ccc2c3c1O[C@H]1[C@@H](O)C=C[C@H]4[C@@H](C2)N(C)CC[C@@]341 [ethylmorphine]
[6]; pH 10
  activity relative to morphine: 1.2 times that of morphine
[7]
  metabolism by washed cells grown on heroin: readily metabolised

## CN1CC[C@]23c4c5ccc(O[C@@H]6O[C@H](C(=O)O)[C@@H](O)[C@H](O)[C@H]6O)c4O[C@H]2[C@@H](O)C=C[C@H]3[C@H]1C5 [morphine glucuronide]
[6]; pH 10
  ability to serve as MDH substrate: completely inactive; also recorded: Inactivity

## CN1CC[C@]23c4c5ccc(O)c4O[C@H]2[C@@H](O)C=C[C@H]3[C@H]1C5 [morphine]
[2]; 3 mM substrate
  dehydrogenase activity: 0.0252 μmol NADPH/min
[6]; pH 10
  specific activity as MDH substrate: 0.002 μmol/min./mg. protein

## COc1ccc2c3c1O[C@H]1C(=O)CC[C@@]4(O)[C@@H](C2)N(C)CC[C@]314 [oxycodone]
[6]; pH 10
  ability to serve as MDH substrate: completely inactive; also recorded: no activity

## O=C(O)c1cc[c]([Hg+])cc1.[OH-] [p-Hydroxymercuribenzoate]
[3]; reagent 0.01 mM, 10 min at room temperature, 100% = 67 U/mg
  (a) Relative activity: 0%
[3]; reagent 0.01 mM
  (b) Relative activity: 0%
[3]; reagent 0.01 mM, incubation (a)
  activity recovered after incubation with 3 mM dithiothreitol for 10 min: 45%
[3]; reagent 0.01 mM, incubation (b)
  activity recovered after incubation with 3 mM dithiothreitol for 10 min: 23%

## CN1CC[C@]23c4c5ccc(OCCN6CCOCC6)c4O[C@H]2[C@@H](O)C=C[C@H]3[C@H]1C5 [pholcodeine]
[6]; pH 10
  ability to serve as MDH substrate: completely inactive; also recorded: Inactivity

## CC(C)O [propan-2-ol]
[2]; alcohol substrates 50 mM
  activity relative to 3 mM morphine: zero

## CCCO [propanol]
[2]; alcohol substrates 50 mM
  activity relative to 3 mM morphine: zero

## C[C@]12CC[C@H]3[C@@H](CCC4=CC(=O)CC[C@@]43C)[C@@H]1CC[C@@H]2O [testosterone]
[2]; final concentration 10 Mm
  activity relative to 3 mM morphine: zero
[4]
  steroid dehydrogenase activity of MDH: No steroid dehydrogenase activity was detected

## COC1=CC=C2[C@H]3Cc4ccc(OC)c5c4[C@@]2(CCN3C)[C@H]1O5 [thebaine]
[6]; pH 10
  ability to serve as MDH substrate: completely inactive
[7]
  metabolism by washed cells grown on heroin: not degraded at all

## nicotinamide hypoxanthine diphosphate
[1]
  operability as cofactor for MDH: have not been found to be operable
